# Calls of active or inactive are those of the source. The calls are words filed in the database; no cut-off is given here.
# Tests used:
# [1] = Selectivity index, ratio of IC50 for African green monkey Vero cells to IC50 for chloroquine-resistant Plasmodium falciparum W2 infected in human RBC; assay type: toxicity; settings: read-out: Ratio IC50
# [2] = tested on: Plasmodium falciparum; assay: Antiplasmodial activity against chloroquine-sensitive Plasmodium falciparum D6 infected in human RBC assessed as decrease in parasite viability after 72 hrs by LDH assay; assay type: functional; settings: D6, 72 h
# [3] = Selectivity index, ratio of IC50 for African green monkey Vero cells to IC50 for chloroquine-sensitive Plasmodium falciparum D6 infected in human RBC; assay type: toxicity; settings: read-out: Ratio IC50
# [4] = tested on: Vero; assay: Cytotoxicity against African green monkey Vero cells after 48 hrs by neutral red uptake assay; assay type: cell-based; settings: Chlorocebus sabaeus
# [5] = tested on: Plasmodium falciparum; assay: Antiplasmodial activity against chloroquine-resistant Plasmodium falciparum W2 infected in human RBC assessed as decrease in parasite viability after 72 hrs by LDH assay; assay type: functional; settings: W2, 72 h
# [6] = Binding affinity to dimeric heme (unknown origin) assessed as change in absorbance band intensity at 362 nm at 10 uM at pH 5.6 by spectrophotometric titration method
# [7] = tested on: Heme; assay: Binding affinity to monomeric heme (unknown origin) assessed as 1:1 stoichiometry for heme-compound complex at 10 uM at pH 5.6 and 7.4 by Job's plot analysis
# [8] = tested on: Plasmodium falciparum; assay: Potency index, ratio of chloroquine IC50 to compound IC50 for chloroquine-resistant Plasmodium falciparum W2; assay type: functional
# [9] = tested on: Heme; assay: Binding affinity to monomeric heme (unknown origin) assessed as decrease in intensity of soret band at 402 nm at pH 5.6 and 7.4 by spectrophotometric titration method
Compound,selectivity ratio [1],IC50 [2] [nM],selectivity ratio [3],IC50 [4] [nM],IC50 [5] [nM],Activity [6],Activity [7],Ratio IC50 [8],Activity [9]
Clc1ccc2c(NCCn3cnc4c(N5CCOCC5)nc(Cl)nc43)ccnc2c1,> 47.4,201,> 53.4,> 10700,226,–,–,–,–
Clc1ccc2c(NCCCn3cnc4c(N5CCOCC5)nc(Cl)nc43)ccnc2c1,> 9.1,833,> 12.5,> 10400,1150,–,–,–,–
CCN(CC)c1nc(Cl)nc2c1ncn2CCCNc1ccnc2cc(Cl)ccc12,> 10.9,556,> 19.3,> 10700,983,–,–,–,–
Clc1ccc2c(NCCCn3cnc4c(N5CCCCC5)nc(Cl)nc43)ccnc2c1,> 2.8,3330,> 3.1,> 10400,3760,–,–,–,–
CCN(CC)CCCC(C)Nc1ccnc2cc(Cl)ccc12 (configuration not stated) [CHLOROQUINE],–,–,–,> 14900,–,–,–,–,–
C[C@@H]1CC[C@H]2[C@@H](C)C(=O)O[C@@H]3O[C@@]4(C)CC[C@@H]1[C@]32OO4 [ARTEMISININ],–,25,–,> 16900,–,–,–,–,–
Clc1ccc2c(NCCn3cnc4c(N5CCCC5)nc(Cl)nc43)ccnc2c1,> 11.3,445,> 25,> 11100,984,–,–,–,–
Clc1ccc2c(NCCCn3cnc4c(N5CCN(c6ccccc6)CC5)nc(Cl)nc43)ccnc2c1,> 17.7,187,> 47.6,> 8900,504,–,–,–,–
Clc1ccc2c(NCCn3cnc4c(N5CCSCC5)nc(Cl)nc43)ccnc2c1,9.6,292,19.5,5680,590,–,–,–,–
CN(C)c1nc(Cl)nc2c1ncn2CCNc1ccnc2cc(Cl)ccc12,> 32.8,254,> 46.6,> 11900,361,–,–,–,–
CN1CCN(c2nc(Cl)nc3c2ncn3CCCNc2ccnc3cc(Cl)ccc23)CC1,> 54.5,69,> 145,> 10100,185,–,–,–,–
Clc1ccc2c(NCCCn3cnc4c(N5CCCCCC5)nc(Cl)nc43)ccnc2c1,> 4.3,1230,> 8.3,> 10100,2380,–,–,–,–
CN1CCN(c2nc(Cl)nc3c2ncn3CCNc2ccnc3cc(Cl)ccc23)CC1,> 85.4,84,> 124,> 10400,122,–,–,–,–
Clc1ccc2c(NCCn3cnc4c(N5CCN(c6ccccc6)CC5)nc(Cl)nc43)ccnc2c1,9.4,154,26.2,4040,428,–,–,–,–
Clc1ccc2c(NCCn3cnc4c(N5CCCCCC5)nc(Cl)nc43)ccnc2c1,> 14.3,419,> 24.9,> 10400,729,–,–,–,–
CN(C)c1nc(Cl)nc2c1ncn2CCCNc1ccnc2cc(Cl)ccc12,> 10.5,254,> 45,> 11500,1090,–,–,–,–
CCN(CC)c1nc(Cl)nc2c1ncn2CCNc1ccnc2cc(Cl)ccc12,> 1.6,4650,> 2.4,> 11100,6760,–,–,–,–
Clc1ccc2c(NCCn3cnc4c(N5CCCCC5)nc(Cl)nc43)ccnc2c1,> 4.4,347,> 31.1,> 10800,2450,–,–,–,–
Clc1ccc2c(NCCCn3cnc4c(N5CCCC5)nc(Cl)nc43)ccnc2c1,> 6.1,1080,> 10,> 10800,1760,–,–,–,–
CCN1CCN(c2nc(Cl)nc3c2ncn3CCCNc2ccnc3cc(Cl)ccc23)CC1,> 49.5,97,> 101,> 9830,198,–,–,–,–
CCN1CCN(c2nc(Cl)nc3c2ncn3CCNc2ccnc3cc(Cl)ccc23)CC1,> 125,61,> 164,> 10100,80,Active,Active,6,Active
Clc1ccc2c(NCCCn3cnc4c(N5CCSCC5)nc(Cl)nc43)ccnc2c1,> 5.6,446,> 22.6,> 10100,1800,–,–,–,–
